Test results published in PMC10986598, “Investigating inhibitors of 1-deoxy-D-xylulose 5-phosphate synthase in a mouse model of UTI” (Microbiology Spectrum, 2024).
Read-outs that look alike come from different tables or passages of the source.

Assays:
[1] = In vitro stability in mouse liver microsomes; type: in vitro ADME
Protocol: Figure S1. Percent BAP or pro-hpAP remaining after incubation in mouse liver microsomes (+/-NADPH) (a), mouse plasma (b), or mouse liver homogenates (c). Data shown as bar graphs in Figure 4.

[2] = In vitro stability in mouse liver homogenate; type: in vitro ADME; conditions: mouse liver homogenate (10%, wt/vol), 10 µM
Protocol: In vitro stability studies were conducted using our previously published methods naive CD1 mouse plasma or liver homogenate. For liver homogenate stability study, washed mouse liver was diluted 10-fold in 0.1 M potassium phosphate buffer and homogenized using probe sonication. Crude homogenate was then aliquoted to 1 mL, and the homogenate was spiked with 10 µM compound. The plasma stability of the compounds was determined by spiking (10 µM) in 1 mL of plasma and incubating in an orbital shaker at 37°C. All the stability studies were conducted at predetermined times (0, 30, and 60 min), where 100 µL aliquots of the mixture in triplicate were removed and the reaction was quenched by the addition of three times the volume of ice-cold acetonitrile spiked with the internal standard (losartan: 0.5 µM). The samples were vortex-mixed for 30 s and centrifuged at 10,000g for 10 min at 4°C. An amount of 50 µL of the supernatant was diluted with 50 µL of water and transferred to a 250 µL polypropylene vial sealed with a Teflon cap. Compound disappearance was monitored over time using liquid chromatography and tandem mass spectrometry (LC–MS/MS). Paired t-tests were used to determine statistical significance between 0 and 60 min time points.

[3] = In vivo PK studies in CD-1 mice
Protocol: For pharmacokinetic analysis, both male (n = 2) and female (n = 2) CD1 mice were dosed with either BAP or pro-hpAP by intraperitoneal (IP) route or administration (100 mg/kg) and (30 mg/kg), respectively. Blood and tissue samples were collected at predetermined time points (0–6 h post-dose). Plasma was generated from blood by low-speed centrifugation (3,000 × g), and all samples were stored at −80°C until bioanalysis.
Non-compartmental-analysis module in WinNonlin was used to assess blood pharmacokinetic parameters including max concentrations (Cmax), time to Cmax (Tmax), area under the curve (AUC), area extrapolated to infinity (AUC0–∞), and terminal half-life (t1/2). In addition, the tissue penetration index was measured as the ratio of AUCtissue to AUCplasma.
To quantify BAP and pro-hpAP, methanol containing 0.5 µM losartan as an internal standard was added 5 µL/µL plasma or 5 µL/mg tissue in microcentrifuge tubes. Tissue was further homogenized using a Spex Geno/Grinder with stainless steel beads for 3 min at 1,500 RPM. Homogenates from untreated animals were spiked with the analytes from 100 to 0.01 nmol/g tissue by serial dilution to generate a standard curve. Plasma and tissue homogenates were then vortexed and centrifuged (16,000 × g for 5 min at 4°C) to precipitate proteins. Supernatants were transferred to a 96 well plate and 2 µL was injected on a Accela 1250 LC coupled to a Vantage triple quadrupole mass spectrometer (Thermo Fisher Scientific Inc., Waltham MA). Samples were separated on an Agilent EclipsePlus C18 RRHD (1.8 µm) 2.1 × 100 mm column with mobile phases consisting of water +0.1% formic acid (A), and acetonitrile + 0.1% formic acid (B). […] Samples were introduced to the source through heated ion spray with the capillary temperature setting at 350°C, spray voltage of 4 kV and S-Lens RF of 51. Nitrogen was used as the sheath and auxiliary gas with the settings of 50 and 1 arbitrary units, respectively. For BAP, the instrument was operated in negative ion mode scanning for transitions of 179.1 > 63.1, 79.1 (BAP) and 420.9 > 179.1, 127.0 (losartan) which were acquired with collision energies setting of 17; 55 and 25; 41 CE, respectively. For pro-hpAP, the instrument was operated in positive ion mode scanning for transitions of 346.2 to 86.1 and 143.2 (pro-hpAP) and 422.9 to 207.1 and 180.1 (losartan) which were acquired with collision energies setting of 29; 17 and 37; 22 CE, respectively. Peaks were quantified with Xcalibur software.

[4] = Bladder, single 100 mg/kg IP dose of BAP
[5] = Brain, single 100 mg/kg IP dose of BAP
[6] = Kidney, single 100 mg/kg IP dose of BAP
[7] = Plasma, single 100 mg/kg IP dose of BAP

SMILES: CCCCOP(=O)(O)C(C)=O [BAP, butyl acetylphosphonate]
- % remaining in liver microsomes ([1]; at 1 h): 94%
- % remaining in liver homogenate ([2]; at 1 h): 22%
- AUC(0-t) [3, 4]: 1990 ± 110 µM·h
- Cmax [3, 4]: 1840 ± 230 µM
- Tmax [3, 4]: 4.8 min
- AUC(0-t) [3, 5]: 12.5 ± 1.8 µM·h
- Cmax [3, 5]: 16.2 ± 2.6 µM
- AUC(0-t) [3, 6]: 136 ± 7 µM·h
- Cmax [3, 6]: 298 ± 37 µM
- Tmax [3, 6]: 4.8 min
- AUC(0-t) [3, 7]: 233 ± 27 µM·h
- Cmax [3, 7]: 650 ± 190 µM
- Tmax [3, 7]: 4.8 min
- AUC ([3]; bladder, BAP 100 mg/kg IP): 1,990 ± 110 nmol h/g
- AUC ([3]; brain, BAP 100 mg/kg IP): 12.5 ± 1.8 nmol·h/g
- AUC ([3]; kidney, BAP 100 mg/kg IP): 136 ± 7 nmol·h/g
- AUC ([3]; plasma, BAP 100 mg/kg IP): 233 ± 27 nmol·h/mL

SMILES: C#CCCOP(=O)(O)C(=C)NC(=O)C(CC(C)C)NC(=O)CN (centres unmarked) [pro-hpAP]
- remaining at 1 h [1]: 90%
- prodrug remaining in liver homogenate ([2]; 30 min incubation): no prodrug remaining
- AUC ([3]; bladder, pro-hpAP 30 mg/kg IP, analyte = labelled substance (pro-hpAP or released hpAP)): 6.2 ± 1.3 nmol·h/g
- Cmax ([3]; both sexes, CD1, mouse, Bladder, single 30 mg/kg IP dose of pro-hpAP, analyte = labelled substance): 24.3 ± 8.5 µM
- AUC(0-t) ([3]; both sexes, CD1, mouse, Bladder, single 30 mg/kg IP dose of pro-hpAP, analyte = labelled substance, read-out: AUC0-t): 6.2 ± 1.3 µM·h
- Tmax ([3]; both sexes, CD1, mouse, Bladder, single 30 mg/kg IP dose of pro-hpAP, analyte = labelled substance, read-out: Tmax): 4.8 min
- Cmax ([3]; both sexes, CD1, mouse, Brain, single 30 mg/kg IP dose of pro-hpAP, analyte = labelled substance): 0.134 ± 0.036 µM
- AUC(0-t) ([3]; both sexes, CD1, mouse, Brain, single 30 mg/kg IP dose of pro-hpAP, analyte = labelled substance, read-out: AUC0-t): 0.115 ± 0.014 µM·h
- Tmax ([3]; both sexes, CD1, mouse, Brain, single 30 mg/kg IP dose of pro-hpAP, analyte = labelled substance, read-out: Tmax): 4.8 min
- Cmax ([3]; both sexes, CD1, mouse, Kidney, single 30 mg/kg IP dose of pro-hpAP, analyte = labelled substance): 0.715 ± 0.09 µM
- AUC(0-t) ([3]; both sexes, CD1, mouse, Kidney, single 30 mg/kg IP dose of pro-hpAP, analyte = labelled substance, read-out: AUC0-t): 0.516 ± 0.048 µM·h
- Tmax ([3]; both sexes, CD1, mouse, Kidney, single 30 mg/kg IP dose of pro-hpAP, analyte = labelled substance, read-out: Tmax): 4.8 min
- Cmax ([3]; both sexes, CD1, mouse, Plasma, single 30 mg/kg IP dose of pro-hpAP, analyte = labelled substance (pro-hpAP or released hpAP)): 20.2 ± 1.9 µM
- AUC(0-t) ([3]; both sexes, CD1, mouse, Plasma, single 30 mg/kg IP dose of pro-hpAP, analyte = labelled substance, read-out: AUC0-t): 3.2 ± 0.21 µM·h
- Tmax ([3]; both sexes, CD1, mouse, Plasma, single 30 mg/kg IP dose of pro-hpAP, analyte = labelled substance, read-out: Tmax): 4.8 min
- AUC ([3]; both sexes, CD1, mouse, plasma, pro-hpAP 30 mg/kg IP, analyte = labelled substance, read-out: AUC): 3.2 ± 0.21 nmol·h/mL
- AUC ([3]; brain, pro-hpAP 30 mg/kg IP, analyte = labelled substance): 0.115 ± 0.014 nmol·h/g
- AUC ([3]; kidney, pro-hpAP 30 mg/kg IP, analyte = labelled substance): 0.516 ± 0.048 nmol·h/g
